Source: US8796256B2 (Janssen Pharmaceutica NV, priority 2010, dated 2014)

molecular target: T1, ERR1 (also known as ERR-α or ERR-1) (Homo sapiens, UniProt P11474); assay: TR-FRET assay (disruption of co-activator peptide binding to ERR1 LBD); format: biochemical; conditions: 6 nM 6His-ERR1LBD, 6 nM GST-SRC-2 peptide; average of 3 independent experiments
T1 sequence (P11474 193-421 limits assumed): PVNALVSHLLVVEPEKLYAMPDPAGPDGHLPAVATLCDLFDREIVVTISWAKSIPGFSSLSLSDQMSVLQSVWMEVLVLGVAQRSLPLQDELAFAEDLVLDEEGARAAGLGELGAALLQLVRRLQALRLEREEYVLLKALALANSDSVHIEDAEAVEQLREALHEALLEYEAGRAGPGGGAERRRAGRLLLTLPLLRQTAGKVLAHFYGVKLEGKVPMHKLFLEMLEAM
Outline: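 Homogeneous TR-FRET measuring displacement of GST-hSRC2 co-activator peptide (6 nM) from His-tagged ERR1 LBD (6 nM), detected with α-GST Eu cryptate (30 nM) and α-His-XL665 (7.5 nM). Buffer 25 mM Tris pH 8, 2.5 mM Hepes, 20 mM KCl, 1 mM DTT, 0.05 mg/mL delipidated BSA; equilibration 4-18 h at 25° C. Hyperbolic dose-response fit, mean of 3 experiments.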

SMILES	EC50 [nM]
O=C1S/C(=C\c2ccc3c(cnn3Cc3ccc(C(F)(F)F)cc3C(F)(F)F)c2)C(=O)N1C[C@@H]1CNCCO1 [Compound 195, (5Z)-5-({1-[2,4-Bis(trifluoromethyl)benzyl]-1H-indazol-5-yl}methylidene)-3-[(2S)-morpholin-2-ylmethyl]-1,3-thiazolidine-2,4-dione]	61
N[C@H]1CC[C@H](N2C(=O)S/C(=C\c3ccc4c(cnn4Cc4ccc(Cl)cc4C(F)(F)F)c3)C2=O)CC1 [Compound 176, (5Z)-3-(trans-4-Aminocyclohexyl)-5-({1-[4-chloro-2-(trifluoromethyl)benzyl]-1H-indazol-5-yl}methylidene)-1,3-thiazolidine-2,4-dione]	58
Cc1nn(Cc2ccc(Cl)cc2C(F)(F)F)c2ccc(/C=C3\SC(=O)N(CC(=O)NS(C)(=O)=O)C3=O)cc12 [Compound 44, 2-[(5Z)-5-({1-[4-Chloro-2-(trifluoromethyl)benzyl]-3-methyl-1H-indazol-5-yl}methylidene)-2,4-dioxo-1,3-thiazolidin-3-yl]-N-(methylsulfonyl)acetamide]	72
O=C1S/C(=C\c2ccc3c(cnn3Cc3ccc(C(F)(F)F)cc3C(F)(F)F)c2)C(=O)N1C[C@H]1CCCN1 [Compound 82, (5Z)-5-({1-[2,4-Bis(trifluoromethyl)benzyl]-1H-indazol-5-yl}methylidene)-3-[(2R)-pyrrolidin-2-ylmethyl]-1,3-thiazolidine-2,4-dione]	81
CCOC(=O)C(Cc1ccccn1)N1C(=O)S/C(=C\c2ccc3c(cnn3Cc3ccc(Cl)cc3C(F)(F)F)c2)C1=O (centres unmarked) [Compound 211, Ethyl 2-[(5Z)-5-({1-[4-chloro-2-(trifluoromethyl)benzyl]-1H-indazol-5-yl}methylidene)-2,4-dioxo-1,3-thiazolidin-3-yl]-3-pyridin-2-ylpropanoate]	91
O=C(O)[C@H](CO)N1C(=O)S/C(=C\c2ccc3c(cnn3Cc3ccc(Cl)cc3C(F)(F)F)c2)C1=O [Compound 221, (2S)-2-[(5Z)-5-({1-[4-Chloro-2-(trifluoromethyl)benzyl]-1H-indazol-5-yl}methylidene)-2,4-dioxo-1,3-thiazolidin-3-yl]-3-hydroxypropanoic acid]	61
N=C(N)NOCCN1C(=O)S/C(=C\c2ccc3c(cnn3Cc3ccc(C(F)(F)F)cc3C(F)(F)F)c2)C1=O [Compound 103, 1-{2-[(5Z)-5-({1-[2,4-Bis(trifluoromethyl)benzyl]-1H-indazol-5-yl}methylidene)-2,4-dioxo-1,3-thiazolidin-3-yl]ethoxy}guanidine]	43
COCCN1CCC[C@H]1CN1C(=O)S/C(=C\c2ccc3c(cnn3Cc3ccc(Cl)cc3C(F)(F)F)c2)C1=O [Compound 152, (5Z)-5-({1-[4-Chloro-2-(trifluoromethyl)benzyl]-1H-indazol-5-yl}methylidene)-3-{[(2S)-1-(2-methoxyethyl)pyrrolidin-2-yl]methyl}-1,3-thiazolidine-2,4-dione]	27
CN(C)S(=O)(=O)NC(=O)CN1C(=O)S/C(=C\c2ccc3c(cnn3Cc3ccc(C(F)(F)F)cc3C(F)(F)F)c2)C1=O [Compound 88, 2-[(5Z)-5-({1-[2,4-Bis(trifluoromethyl)benzyl]-1H-indazol-5-yl}methylidene)-2,4-dioxo-1,3-thiazolidin-3-yl]-N-(dimethylsulfamoyl)acetamide]	134
O=C1S/C(=C\c2ccc3c(cnn3Cc3ccc(Cl)cc3C(F)(F)F)c2)C(=O)N1[C@H]1CCNC1 [Compound 114, (5Z)-5-({1-[4-Chloro-2-(trifluoromethyl)benzyl]-1H-indazol-5-yl}methylidene)-3-[(3S)-pyrrolidin-3-yl]-1,3-thiazolidine-2,4-dione]	55
CC(C)(C)NS(=O)(=O)CN1C(=O)S/C(=C\c2ccc3c(cnn3Cc3ccc(Cl)cc3C(F)(F)F)c2)C1=O [Compound 160, N-tert-Butyl-1-[(5Z)-5-({1-[4-chloro-2-(trifluoromethyl)benzyl]-1H-indazol-5-yl}methylidene)-2,4-dioxo-1,3-thiazolidin-3-yl]methanesulfonamide]	77
C[C@H](N)CN1C(=O)S/C(=C\c2ccc3c(cnn3Cc3ccc(C(F)(F)F)cc3C(F)(F)F)c2)C1=O [Compound 81, (5Z)-3-[(2S)-2-Aminopropyl]-5-({1-[2,4-bis(trifluoromethyl)benzyl]-1H-indazol-5-yl}methylidene)-1,3-thiazolidine-2,4-dione]	51

Results, then the molecule that gave them:

EC50 [nM]	SMILES
16	O=C1S/C(=C\c2ccc3c(c2)nnn3Cc2ccc(Cl)cc2C(F)(F)F)C(=O)N1Cc1nc[nH]n1 [Compound 264, (5Z)-5-({1-[4-Chloro-2-(trifluoromethyl)benzyl]-1H-benzotriazol-5-yl}methylidene)-3-(1H-1,2,4-triazol-3-ylmethyl)-1,3-thiazolidine-2,4-dione]
1020	O=C(O)CN1C(=O)S/C(=C\c2ccc3c(ccn3Cc3ccc(F)cc3C(F)(F)F)c2)C1=O [Compound 255, [(5Z)-5-({1-[4-Fluoro-2-(trifluoromethyl)benzyl]-1H-indol-5-yl}methylidene)-2,4-dioxo-1,3-thiazolidin-3-yl]acetic acid]
27	O=C1CCNCC1N1C(=O)S/C(=C\c2ccc3c(cnn3Cc3ccc(Cl)cc3C(F)(F)F)c2)C1=O (centres unmarked) [Compound 343, (5Z)-5-({1-[4-Chloro-2-(trifluoromethyl)benzyl]-1H-indazol-5-yl}methylidene)-3-(4-oxopiperidin-3-yl)-1,3-thiazolidine-2,4-dione]
34	O=C1S/C(=C\c2ccc3c(cnn3Cc3ccc(C(F)(F)F)cc3C(F)(F)F)c2)C(=O)N1[C@@H]1CNCC[C@H]1O (relative stereo) [Compound 280, (5Z)-5-({1-[2,4-Bis(trifluoromethyl)benzyl]-1H-indazol-5-yl}methylidene)-3-[trans-4-hydroxypiperidin-3-yl]-1,3-thiazolidine-2,4-dione]
50	CN(C)CCN1C(=O)S/C(=C\c2ccc3c(ccn3Cc3ccc(Cl)cc3C(F)(F)F)c2)C1=O [Compound 243, (5Z)-5-[(1-{[4-Chloro-2-(trifluoromethyl)phenyl]methyl}-1H-indol-5-yl)methylidene]-3-[2-(dimethylamino)ethyl]-1,3-thiazolidine-2,4-dione]
21	O=C1S/C(=C\c2ccc3c(cnn3Cc3ccc(Cl)cc3C(F)(F)F)c2)C(=O)N1Cc1nccn1Cc1ncc[nH]1 [Compound 404, (5Z)-5-({1-[4-Chloro-2-(trifluoromethyl)benzyl]-1H-indazol-5-yl}methylidene)-3-{[1-(1H-imidazol-2-ylmethyl)-1H-imidazol-2-yl]methyl}-1,3-thiazolidine-2,4-dione]
16	Cc1nc(CN2C(=O)S/C(=C\c3ccc4c(c3)nnn4Cc3ccc(Cl)cc3C(F)(F)F)C2=O)n[nH]1 [Compound 263, (5Z)-5-({1-[4-Chloro-2-(trifluoromethyl)benzyl]-1H-benzotriazol-5-yl}methylidene)-3-[(5-methyl-1H-1,2,4-triazol-3-yl)methyl]-1,3-thiazolidine-2,4-dione]
46	Cc1nn(Cc2ccc(Cl)cc2C(F)(F)F)c2ccc(/C=C3\SC(=O)N([C@@H]4CCN(C)C[C@H]4F)C3=O)cc12 (relative stereo) [Compound 335, (5Z)-5-({1-[4-Chloro-2-(trifluoromethyl)benzyl]-3-methyl-1H-indazol-5-yl}methylidene)-3-[trans-3-fluoro-1-methylpiperidin-4-yl]-1,3-thiazolidine-2,4-dione]
115	Cc1noc(C)c1S(=O)(=O)NCCN1C(=O)S/C(=C\c2ccc3c(cnn3Cc3ccc(Cl)cc3C(F)(F)F)c2)C1=O [Compound 419, N-{2-[(5Z)-5-({1-[4-Chloro-2-(trifluoromethyl)benzyl]-1H-indazol-5-yl}methylidene)-2,4-dioxo-1,3-thiazolidin-3-yl]ethyl}-3,5-dimethylisoxazole-4-sulfonamide]
36	O=C1S/C(=C\c2ccc3c(cnn3Cc3ccc(Cl)cc3C(F)(F)F)c2)C(=O)N1Cc1ncon1 [Compound 401, (5Z)-5-({1-[4-Chloro-2-(trifluoromethyl)benzyl]-1H-indazol-5-yl}methylidene)-3-(1,2,4-oxadiazol-3-ylmethyl)-1,3-thiazolidine-2,4-dione]
22	CNN1C(=O)S/C(=C\c2ccc3c(cnn3Cc3ccc(Cl)cc3C(F)(F)F)c2)C1=O [Compound 358, (5Z)-5-({1-[4-Chloro-2-(trifluoromethyl)benzyl]-1H-indazol-5-yl}methylidene)-3-(methylamino)-1,3-thiazolidine-2,4-dione]
42	CCN1CC[C@@H](N2C(=O)S/C(=C\c3ccc4c(cnn4Cc4ccc(Cl)cc4C(F)(F)F)c3)C2=O)[C@H](F)C1 [Compound 386, (5Z)-5-({1-[4-Chloro-2-(trifluoromethyl)benzyl]-1H-indazol-5-yl}methylidene)-3-[(3R,4R)-1-ethyl-3-fluoropiperidin-4-yl]-1,3-thiazolidine-2,4-dione]
32	O=C(O)C(Cc1cccnc1)N1C(=O)S/C(=C\c2ccc3c(cnn3Cc3ccc(Cl)cc3C(F)(F)F)c2)C1=O (centres unmarked) [Compound 225, 2-[(5Z)-5-({1-[4-Chloro-2-(trifluoromethyl)benzyl]-1H-indazol-5-yl}methylidene)-2,4-dioxo-1,3-thiazolidin-3-yl]-3-pyridin-3-ylpropanoic acid]
579	N#Cc1ccc(Cn2ncc3cc(/C=C4\SC(=O)N(CC(=O)O)C4=O)ccc32)c(C(F)(F)F)c1 [Compound 346, [(5Z)-5-({1-[4-Cyano-2-(trifluoromethyl)benzyl]-1H-indazol-5-yl}methylidene)-2,4-dioxo-1,3-thiazolidin-3-yl]acetic acid]
